Values quoted from earlier work, collected in US20060246003A1, “Composition containing anti-dementia drug” (priority 2004, published 2006).
Structures can show the parent of a compound that is named as a salt.

Test system: patients with moderate to severe Alzheimer-type dementia
Details: memantine hydrochloride added in patients already administered donepezil hydrochloride, compared to placebo group

CC12CC3CC(C)(C1)CC(N)(C3)C2 [memantine hydrochloride]
cognitive ability and activities of daily living: improved
